Data published in patent US6906205B2, “Spiro and dispiro 1,2,4-trioxolane antimalarials” (Medicines for Malaria Venture MMV, priority 2002, dated 2005).

Test system: ANKA strain of P. berghei
Experiment: single dose STI in vivo screen in infected mice
Parameters: species or system Plasmodium berghei
Details: percent reduction in parasitemia day 3 post-infection; single 10 mg/kg po in 3% ethanol and 7% Tween 80; mice
Protocol: In the single dose STI in vivo screen, Moro SPF or NMRI mice infected with the ANKA strain of P. berghei (groups of 3-5 mice) were treated on day one post-infection with trioxolanes dissolved or suspended in 3% ethanol and 7% Tween 80. […] SSV consists of 0.5% w/v CMC, 0.5% v/v benzyl alcohol, 0.4% v/v Tween 80, and 0.9% w/v sodium chloride in water. Antimalarial activity was measured by percent reduction in parasitemia on day three post-infection and survival times compared to an untreated control group. Survival to day 30 post-infection is considered to be a cure. […] Other factors influencing antimalarial activity include the stability of carbon radicals formed by β-scission subsequent to the initial electron transfer to the peroxide bond and the influence of steric effects remote from the peroxide bond on the interactions between carbon radicals and potential drug targets.

| Compound | Activity (%) po [%] |
| --- | --- |
| N[C@H]1CC[C@]2(CC1)OOC1(O2)C2CC3CC(C2)CC1C3 (some centres unmarked) [OZ137] | 0 |
| O=C1c2ccccc2C(=O)N1C[C@H]1CC[C@]2(CC1)OOC1(O2)C2CC3CC(C2)CC1C3 (some centres unmarked) [OZ146] | 62 |
| CCOC(=O)CCC1CCCCC12OOC1(O2)C2CC3CC(C2)CC1C3 (centres unmarked) [OZ08] | 99.7 |
| FC(F)(F)c1ccc(C2CCC3(CC2)OOC2(O3)C3CC4CC(C3)CC2C4)cc1 (centres unmarked) [OZ48] | 99.8 |
| FC(F)(F)c1cccc(C2(c3cccc(C(F)(F)F)c3)OOC3(O2)C2CC4CC(C2)CC3C4)c1 (centres unmarked) [OZ46] | 99 |
| CCOC(=O)CCC(=O)N1CCC2(CC1)OOC1(O2)C2CC3CC(C2)CC1C3 (centres unmarked) [OZ53] | 9 |
| O=C(C[n+]1ccccc1)NN=C1CCC2(CC1)OOC1(O2)C2CC3CC(C2)CC1C3.[Cl-] (centres unmarked) [OZ55] | 45 |

Same assay, conditions: percent reduction in parasitemia day 3 post-infection; single 10 mg/kg po in SSV

| Compound | Activity (%) 10 mg/kg SSV po |
| --- | --- |
| O=C(NC[C@H]1CC[C@]2(CC1)OOC1(O2)C2CC3CC(C2)CC1C3)c1ccccc1O (some centres unmarked) [OZ280] | 0/ND % |
| O=S(=O)(C[C@H]1CC[C@]2(CC1)OO[C@]1(O2)C2CC3CC(C2)CC1C3)c1cccc[n+]1[O-] [OZ324] | 60% |

Same assay, conditions: percent reduction in parasitemia day 3 post-infection; single 10 mg/kg sc in 3% ethanol and 7% Tween 80; mice

| Compound | Activity (%) sc [%] |
| --- | --- |
| N[C@H]1CC[C@]2(CC1)OOC1(O2)C2CC3CC(C2)CC1C3 (some centres unmarked) [OZ137] | 61 |
| O=C1c2ccccc2C(=O)N1C[C@H]1CC[C@]2(CC1)OOC1(O2)C2CC3CC(C2)CC1C3 (some centres unmarked) [OZ146] | 91 |
| CCOC(=O)CCC1CCCCC12OOC1(O2)C2CC3CC(C2)CC1C3 (centres unmarked) [OZ08] | 99.9 |
| FC(F)(F)c1ccc(C2CCC3(CC2)OOC2(O3)C3CC4CC(C3)CC2C4)cc1 (centres unmarked) [OZ48] | 42 |
| FC(F)(F)c1cccc(C2(c3cccc(C(F)(F)F)c3)OOC3(O2)C2CC4CC(C2)CC3C4)c1 (centres unmarked) [OZ46] | 62 |
| CCOC(=O)CCC(=O)N1CCC2(CC1)OOC1(O2)C2CC3CC(C2)CC1C3 (centres unmarked) [OZ53] | 58 |
| O=C(C[n+]1ccccc1)NN=C1CCC2(CC1)OOC1(O2)C2CC3CC(C2)CC1C3.[Cl-] (centres unmarked) [OZ55] | 97 |

Same assay, conditions: percent reduction in parasitemia day 3 post-infection; single po dose in standard suspending vehicle (SSV); mice

| Compound | Activity (%) SSVpo [%] |
| --- | --- |
| N[C@H]1CC[C@]2(CC1)OOC1(O2)C2CC3CC(C2)CC1C3 (some centres unmarked) [OZ137] | 6 |
| O=C1c2ccccc2C(=O)N1C[C@H]1CC[C@]2(CC1)OOC1(O2)C2CC3CC(C2)CC1C3 (some centres unmarked) [OZ146] | 40 |

Same assay, conditions: single 10 mg/kg po in 3% ethanol and 7% Tween 80; untreated control 5.6 ± 0.3

| Compound | Survival (days) po [days] |
| --- | --- |
| CCOC(=O)CCC1CCCCC12OOC1(O2)C2CC3CC(C2)CC1C3 (centres unmarked) [OZ08] | 8.0 |
| FC(F)(F)c1ccc(C2CCC3(CC2)OOC2(O3)C3CC4CC(C3)CC2C4)cc1 (centres unmarked) [OZ48] | 8.7 |
| FC(F)(F)c1cccc(C2(c3cccc(C(F)(F)F)c3)OOC3(O2)C2CC4CC(C2)CC3C4)c1 (centres unmarked) [OZ46] | 7.7 |
| CCOC(=O)CCC(=O)N1CCC2(CC1)OOC1(O2)C2CC3CC(C2)CC1C3 (centres unmarked) [OZ53] | 6.0 |
| O=C(C[n+]1ccccc1)NN=C1CCC2(CC1)OOC1(O2)C2CC3CC(C2)CC1C3.[Cl-] (centres unmarked) [OZ55] | 6.0 |

Same assay, conditions: single 10 mg/kg po in SSV

| Compound | Survival (days) 10 mg/kg SSV po [ND days] |
| --- | --- |
| O=C(NC[C@H]1CC[C@]2(CC1)OOC1(O2)C2CC3CC(C2)CC1C3)c1ccccc1O (some centres unmarked) [OZ280] | 5.7 |

Same assay, conditions: single 10 mg/kg sc in 3% ethanol and 7% Tween 80; untreated control 5.6 ± 0.3

| Compound | Survival (days) sc [days] |
| --- | --- |
| CCOC(=O)CCC1CCCCC12OOC1(O2)C2CC3CC(C2)CC1C3 (centres unmarked) [OZ08] | 9.7 |
| FC(F)(F)c1ccc(C2CCC3(CC2)OOC2(O3)C3CC4CC(C3)CC2C4)cc1 (centres unmarked) [OZ48] | 6.3 |
| FC(F)(F)c1cccc(C2(c3cccc(C(F)(F)F)c3)OOC3(O2)C2CC4CC(C2)CC3C4)c1 (centres unmarked) [OZ46] | 6.0 |
| CCOC(=O)CCC(=O)N1CCC2(CC1)OOC1(O2)C2CC3CC(C2)CC1C3 (centres unmarked) [OZ53] | 6.3 |
| O=C(C[n+]1ccccc1)NN=C1CCC2(CC1)OOC1(O2)C2CC3CC(C2)CC1C3.[Cl-] (centres unmarked) [OZ55] | 7.3 |

Same assay, conditions: single po dose in SSV; untreated control 5.6 ± 0.3

| Compound | Survival (days) SSVpo [days] |
| --- | --- |
| OC[C@H]1CC[C@]2(CC1)OOC1(O2)C2CC3CC(C2)CC1C3 (some centres unmarked) [OZ119] | 8.0 |
| N[C@H]1CC[C@]2(CC1)OOC1(O2)C2CC3CC(C2)CC1C3 (some centres unmarked) [OZ137] | 6.3 |
| O=C1c2ccccc2C(=O)N1C[C@H]1CC[C@]2(CC1)OOC1(O2)C2CC3CC(C2)CC1C3 (some centres unmarked) [OZ146] | 6.3 |
